Laboratory results from patent publication US12448518B2, “Phthalocyanine dye compounds, conjugates and methods of use thereof” (Rakuten Medical, Inc., priority 2020, dated 2025).

How the values were obtained:
[1] = Singlet oxygen quantum yield, indirect method with chemical quencher (DPBF or ADMA); type: physicochemical
Text: Photogeneration quantum yields of singlet oxygen (ΦΔ) were obtained by an indirect method, using either diphenylisobenzofuran (DBPF) or anthracene-9,10-bis-methylmalonate (ADMA) as chemical quenchers in either N,N-dimethylformamide or aqueous media, respectively. Typically, a solution of the phthalocyanine and the quencher was irradiated with a red LED lamp (670 nm) at 5 mW/cm^2. The initial DPBF or ADMA concentrations were kept the same for both the reference and the test samples. The degradation of the DPBF band at 414 nm or ADMA at 401 nm was monitored in a Varian Cary® 50 UV-Vis spectrophotometer, every five seconds in the case of DPBF (up to 30 seconds) and every minute in the case of ADMA (up to five minutes). ZnPc (ΦΔ=0.67) and AlPcSmix (ΦΔ=0.42) were used as references in N,N-dimethylformamide or aqueous media, respectively.
The relative method shown by Eq. (1) was employed for calculations of the ΦΔ:
[formula] where ΦΔ and ΦΔref are the ^1O2 generation quantum yields for the sample and reference, respectively, m and mref are the DPBF or ADMA photobleaching rates in the presence of the phthalocyanine of the invention and the reference, respectively, and I and Iref are the rates of light absorption by the phthalocyanine derivative and reference, respectively. Concentrations of the test compound and reference were chosen such that their respective absorptions at the irradiation wavelength were the same.

[2] = Kinetic (aqueous) solubility in pH 7.4 DPBS, UV quantification; conditions: for Solubility* (kinetic): pH 7.4 DPBS, 4 hours, room temperature (25° C.), from 10 mM DMSO stock
[3] = quencher ADMA, aqueous media, 670 nm LED 5 mW/cm^2, reference AlPcSmix

COCCOCCOCC(=O)NCCC[Si](C)(C)O[Si-2]123(O[Si](C)(C)CCCNC(=O)CCCCC(=O)O)n4c5c6ccccc6c4N=C4c6ccccc6C(=[N+]41)N=c1c4ccccc4c(n12)=NC1=[N+]3C(=N5)c2ccccc21 [Example 1, 6-((3-(dimethyl((19-((15-methyl-10-oxo-2,5,8-trioxa-11-aza-15-silahexadecan-15-yl)oxy)-19H-6,11-(azeno)-17,21-(azeno[3]episoindoloazeno)benzo[7,8][1,3,5,10]tetraaza[2]silacycloundecino[4,3-a:11,1-a′]diisoindol-19-yl)oxy)silyl)propyl)amino)-6-oxohexanoic acid]
ΦΔ (singlet oxygen quantum yield) ([1]; quencher DPBF, N,N-dimethylformamide, 670 nm LED 5 mW/cm^2, reference ZnPc): A (≤0.5)

C[Si](C)(CCCNC(=O)COCC(=O)O)O[Si]1(O[Si](C)(C)CCCNC(=O)NCCS(=O)(=O)O)n2c3c4ccccc4c2N=C2N=C(N=c4c5ccccc5c(n41)=NC1=NC(=N3)c3ccccc31)c1ccccc12.N (stereo not shown) [Example 7, Ammonium 2-(2-((3-(((19-((dimethyl(3-(3-(2-sulfonatoethyl)ureido)propyl)silyl)oxy)-19H-6,11-(azeno)-17,21-(azeno[1]episoindoloazeno)benzo[7,8][1,3,5,10]tetraaza[2]silacycloundecino[4,3-a:11,1-a′]diisoindol-19-yl)oxy)dimethylsilyl)propyl)amino)-2-oxoethoxy)acetate]
Solubility* (kinetic) [2]: A (≤1 μg/mL)

C[Si](C)(CCCNC(=O)COCC(=O)O)O[Si]1(O[Si](C)(C)CCCNC(=O)NCC(S(=O)(=O)O)S(=O)(=O)O)n2c3c4ccccc4c2N=C2N=C(N=c4c5ccccc5c(n41)=NC1=NC(=N3)c3ccccc31)c1ccccc12.N (stereo not shown) [Example 8, Ammonium 2-(2-((3-(((19-(((3-(3-(2,2-disulfonatoethyl)ureido)propyl)dimethylsilyl)oxy)-19H-6,11-(azeno)-17,21-(azeno[1]episoindoloazeno)benzo[7,8][1,3,5,10]tetraaza[2]silacycloundecino[4,3-a:11,1-a′]diisoindol-19-yl)oxy)dimethylsilyl)propyl)amino)-2-oxoethoxy)acetate]
Solubility* (kinetic) [2]: A (≤1 μg/mL)

C[Si](C)(CCCNC(=O)CCCN(CCCS(=O)(=O)O)CCCS(=O)(=O)O)O[Si]1(O[Si](C)(C)CCCNC(=O)COCC(=O)O)n2c3c4ccccc4c2N=C2N=C(N=c4c5ccccc5c(n41)=NC1=NC(=N3)c3ccccc31)c1ccccc12.N (stereo not shown) [Example 15, Ammonium 2-(2-((3-(((19-(((3-(4-(bis(3-sulfonatopropyl)ammonio)butanamido)propyl)dimethylsilyl)oxy)-19H-6,11-(azeno)-17,21-(azeno[1]episoindoloazeno)benzo[7,8][1,3,5,10]tetraaza[2]silacycloundecino[4,3-a:11,1-a′]diisoindol-19-yl)oxy)dimethylsilyl)propyl)amino)-2-oxoethoxy)acetate]
Solubility* (kinetic) [2]: B (>1 μg/mL to ≤100 μg/mL)

C[Si](C)(CCC[N+](CCCCS(=O)(=O)O)(CCCCS(=O)(=O)O)CCCCS(=O)(=O)O)O[Si-2]123(O[Si](C)(C)CCC[N+](CCCCS(=O)(=O)O)(CCCCS(=O)(=O)O)CCOCCOCCOCCC(=O)O)n4c5c6ccccc6c4N=C4c6ccccc6C(=[N+]41)N=c1c4ccccc4c(n12)=NC1=[N+]3C(=N5)c2ccccc21.[Na+].[Na+].[Na+].[Na+] [Example 17, Sodium 2-((19-((dimethyl(3-(tris(4-sulfonatobutyl)ammonio)propyl)silyl)oxy)-19H-6,11-(azeno)-17,21-(azeno[3]episoindoloazeno)benzo[7,8][1,3,5,10]tetraaza[2]silacycloundecino[4,3-a:11,1-a′]diisoindol-19-yl)oxy)-2-methyl-6,6-bis(4-sulfonatobutyl)-9,12,15-trioxa-6-aza-2-silaoctadecan-6-ium-18-oate]
ΦΔ (singlet oxygen quantum yield) [1, 3]: B (>0.5)

C[Si](C)(CCC[N+](CCCCS(=O)(=O)[O-])(CCCCS(=O)(=O)[O-])CCCCS(=O)(=O)[O-])O[Si@@]1(O[Si](C)(C)CCC[N+](CCCCS(=O)(=O)[O-])(CCCCS(=O)(=O)[O-])CCOCCOCCC(=O)[O-])n2c3c4ccccc4c2/N=C2N=C(/N=c4/c5ccccc5/c(n41)=N/C1=NC(=N\3)/c3ccccc31)c1ccccc1\2.[Na+].[Na+].[Na+].[Na+] [Example 18, Sodium 2-((19-((dimethyl(3-(tris(4-sulfonatobutyl)ammonio)propyl)silyl)oxy)-19H-6,11-(azeno)-17,21-(azeno[3]episoindoloazeno)benzo[7,8][1,3,5,10]tetraaza[2]silacycloundecino[4,3-a:11,1-a′]diisoindol-19-yl)oxy)-2-methyl-6,6-bis(4-sulfonatobutyl)-9,12-dioxa-6-aza-2-silapentadecan-6-ium-15-oate]
ΦΔ (singlet oxygen quantum yield) [1, 3]: B (>0.5) | Solubility* (kinetic) [2]: C (>100 μg/mL)

C[Si](C)(CCC[N+](CCCS(=O)(=O)O)(CCCS(=O)(=O)O)CCCS(=O)(=O)O)O[Si-2]123(O[Si](C)(C)CCC[N+](CCCS(=O)(=O)O)(CCCS(=O)(=O)O)CCOCCOCCOCCC(=O)O)n4c5c6ccccc6c4N=C4c6ccccc6C(=[N+]41)N=c1c4ccccc4c(n12)=NC1=[N+]3C(=N5)c2ccccc21.[Na+].[Na+].[Na+].[Na+] [Example 19, Sodium 2-((19-((dimethyl(3-(tris(3-sulfonatopropyl)ammonio)propyl)silyl)oxy)-19H-6,11-(azeno)-17,21-(azeno[3]episoindoloazeno)benzo[7,8][1,3,5,10]tetraaza[2]silacycloundecino[4,3-a:11,1-a′]diisoindol-19-yl)oxy)-2-methyl-6,6-bis(3-sulfonatopropyl)-9,12,15-trioxa-6-aza-2-silaoctadecan-6-ium-18-oate]
ΦΔ (singlet oxygen quantum yield) [1, 3]: B (>0.5) | solubility kinetic at 4 h ([2]; 25 °C, pH 7.4, aqueous buffer, kinetic from dmso stock): > 100 µg/mL

Ammonium 3-((4-((3-(((19-(((3-(2-(carboxymethoxy)acetamido)propyl)dimethylsilyl)oxy)-19H-6,11-(azeno)-17,21-(azeno[3]episoindoloazeno)benzo[7,8][1,3,5,10]tetraaza[2]silacycloundecino[4,3-a:11,1-a′]diisoindol-19-yl)oxy)dimethylsilyl)propyl)amino)-4-oxobutyl)bis(3-sulfopropyl)ammonio)propane-1-sulfonae [Example 5]
ΦΔ (singlet oxygen quantum yield) [1, 3]: B (>0.5)
